Tests used:
Format in all cases: in vivo
Indian mallow = assay: weed control effect in post-emergence stage (Table 1); set-up: key: Level 10: completely dead; Level 9: above 95% growth control rate; Level 8: above 90% growth control rate; Level 7: above 80% growth control rate; Level 6: above 70% growth control rate; Level 5: above 60% growth control rate; Level 4: above 50% growth control rate; Level 3: above 20% growth control rate; Level 2: 5%-20% growth control rate; Level 1: below 5% growth control rate; details: post-emergence spray at 4-5 leaf stage, 250 g/ha active ingredient with 450 kg/ha water, rated after 3 weeks in greenhouse
Procedure, shortened: (§1)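 Post-emergence spray: compounds dissolved in acetone, Tween 80 added, diluted with water, applied to plants at 4-5 leaf stage. Plants kept 3 wk in greenhouse; activity scored as fresh-weight control rate.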

bidens bipinnata = assay: as above; set-up: key: Level 10: completely dead; Level 9: above 95% growth control rate; Level 8: above 90% growth control rate; Level 7: above 80% growth control rate; Level 6: above 70% growth control rate; Level 5: above 60% growth control rate; Level 4: above 50% growth control rate; Level 3: above 20% growth control rate; Level 2: 5%-20% growth control rate; Level 1: below 5% growth control rate; details: post-emergence spray at 4-5 leaf stage, 250 g/ha active ingredient with 450 kg/ha water, rated after 3 weeks in greenhouse
Procedure, shortened: as §1

crab grass = assay: as above; set-up: key: Level 10: completely dead; Level 9: above 95% growth control rate; Level 8: above 90% growth control rate; Level 7: above 80% growth control rate; Level 6: above 70% growth control rate; Level 5: above 60% growth control rate; Level 4: above 50% growth control rate; Level 3: above 20% growth control rate; Level 2: 5%-20% growth control rate; Level 1: below 5% growth control rate; details: post-emergence spray at 4-5 leaf stage, 250 g/ha active ingredient with 450 kg/ha water, rated after 3 weeks in greenhouse
Procedure, shortened: as §1

echinochloa = assay: as above; set-up: key: Level 10: completely dead; Level 9: above 95% growth control rate; Level 8: above 90% growth control rate; Level 7: above 80% growth control rate; Level 6: above 70% growth control rate; Level 5: above 60% growth control rate; Level 4: above 50% growth control rate; Level 3: above 20% growth control rate; Level 2: 5%-20% growth control rate; Level 1: below 5% growth control rate; details: post-emergence spray at 4-5 leaf stage, 250 g/ha active ingredient with 450 kg/ha water, rated after 3 weeks in greenhouse
Procedure, shortened: as §1

foxtail = assay: as above; set-up: key: Level 10: completely dead; Level 9: above 95% growth control rate; Level 8: above 90% growth control rate; Level 7: above 80% growth control rate; Level 6: above 70% growth control rate; Level 5: above 60% growth control rate; Level 4: above 50% growth control rate; Level 3: above 20% growth control rate; Level 2: 5%-20% growth control rate; Level 1: below 5% growth control rate; details: post-emergence spray at 4-5 leaf stage, 250 g/ha active ingredient with 450 kg/ha water, rated after 3 weeks in greenhouse
Procedure, shortened: as §1

rorippa indica = assay: as above; set-up: key: Level 10: completely dead; Level 9: above 95% growth control rate; Level 8: above 90% growth control rate; Level 7: above 80% growth control rate; Level 6: above 70% growth control rate; Level 5: above 60% growth control rate; Level 4: above 50% growth control rate; Level 3: above 20% growth control rate; Level 2: 5%-20% growth control rate; Level 1: below 5% growth control rate; details: post-emergence spray at 4-5 leaf stage, 250 g/ha active ingredient with 450 kg/ha water, rated after 3 weeks in greenhouse
Procedure, shortened: as §1

corn = assay: post-emergence stage experiment, crop (Table 1); details: post-emergence spray at 4-5 leaf stage, 250 g/ha active ingredient with 450 kg/ha water, rated after 3 weeks in greenhouse
Procedure, shortened: as §1

wheat [1] = assay: post-emergence stage experiment, crop (Table 1); details: post-emergence spray at 4-5 leaf stage, 250 g/ha active ingredient with 450 kg/ha water, rated after 3 weeks in greenhouse
Procedure, shortened: as §1

rice = assay: post-emergence stage experiment, crop (Table 1); set-up: key: Level 10: completely dead; Level 9: above 95% growth control rate; Level 8: above 90% growth control rate; Level 7: above 80% growth control rate; Level 6: above 70% growth control rate; Level 5: above 60% growth control rate; Level 4: above 50% growth control rate; Level 3: above 20% growth control rate; Level 2: 5%-20% growth control rate; Level 1: below 5% growth control rate; details: post-emergence spray at 4-5 leaf stage, 250 g/ha active ingredient with 450 kg/ha water, rated after 3 weeks in greenhouse
Procedure, shortened: as §1

wheat [2] = assay: wheat field test, crop selectivity, greenhouse spray at 4 leaf stage; details: 250 g/ha of the active substance; 4 weeks after treatment
Procedure, shortened: (§2)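 Read-out: fresh weight control rate, scored 4 weeks after a post-emergence spray. Treatment at 4 leaf stage (2-3 weeks after sowing); compound dissolved in acetone, with methyl oleate emulsion, diluted with water.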

chickweed = assay: wheat field resistant broadleaf weed control, greenhouse spray at 4 leaf stage; set-up: key: Level 10: completely dead; Level 9: above 95% growth control rate; Level 8: above 90% growth control rate; Level 7: above 80% growth control rate; Level 6: above 70% growth control rate; Level 5: above 60% growth control rate; Level 4: above 50% growth control rate; Level 3: above 20% growth control rate; Level 2: 5%-20% growth control rate; Level 1: below 5% growth control rate; details: 250 g/ha of the active substance; 4 weeks after treatment; ALS inhibitor resistant
Procedure, shortened: as §2

corn gromwell = assay: as above; set-up: key: Level 10: completely dead; Level 9: above 95% growth control rate; Level 8: above 90% growth control rate; Level 7: above 80% growth control rate; Level 6: above 70% growth control rate; Level 5: above 60% growth control rate; Level 4: above 50% growth control rate; Level 3: above 20% growth control rate; Level 2: 5%-20% growth control rate; Level 1: below 5% growth control rate; details: 250 g/ha of the active substance; 4 weeks after treatment; ALS inhibitor resistant
Procedure, shortened: as §2

flixweed = assay: as above; set-up: key: Level 10: completely dead; Level 9: above 95% growth control rate; Level 8: above 90% growth control rate; Level 7: above 80% growth control rate; Level 6: above 70% growth control rate; Level 5: above 60% growth control rate; Level 4: above 50% growth control rate; Level 3: above 20% growth control rate; Level 2: 5%-20% growth control rate; Level 1: below 5% growth control rate; details: 250 g/ha of the active substance; 4 weeks after treatment; ALS inhibitor resistant
Procedure, shortened: as §2

shepherd's purse = assay: as above; set-up: key: Level 10: completely dead; Level 9: above 95% growth control rate; Level 8: above 90% growth control rate; Level 7: above 80% growth control rate; Level 6: above 70% growth control rate; Level 5: above 60% growth control rate; Level 4: above 50% growth control rate; Level 3: above 20% growth control rate; Level 2: 5%-20% growth control rate; Level 1: below 5% growth control rate; details: 250 g/ha of the active substance; 4 weeks after treatment; ALS inhibitor resistant
Procedure, shortened: as §2

SMILES | weed control effect, Indian mallow (level) (Indian mallow) | weed control effect, Bidens bipinnata (level) (bidens bipinnata) | weed control effect, Crab grass (level) (crab grass) | weed control effect, Echinochloa (level) (echinochloa) | weed control effect, Green foxtail (level) (foxtail) | weed control effect, Rorippa indica (level) (rorippa indica) | effect on crop, Corn (level) (corn) | effect on crop, Wheat (level) (wheat [1]) | effect on crop, Rice (level) (rice) | Wheat (activity level, crop damage) (wheat [2]) | chickweed weed controlling effect (activity level) (chickweed) | corn gromwell weed controlling effect (activity level) (corn gromwell) | flixweed weed controlling effect (activity level) (flixweed) | shepherd's purse weed controlling effect (activity level) (shepherd's purse)
CCc1nn(C)c(O)c1C(=O)c1ccc(C(F)(F)F)c(N2CCCCCC2=O)c1Cl [Compound 120] | 4 (Level 4: above 50% growth control rate) | 4 (Level 4: above 50% growth control rate) | 1 (Level 1: below 5% growth control rate) | 10 | 7 (Level 7: above 80% growth control rate) | 10 | 1 (Level 1: below 5% growth control rate) | 1 (Level 1: below 5% growth control rate) | 5 (Level 5: above 60% growth control rate) | 1 (Level 1: below 5% growth control rate) | 10 | 10 | 10 | 10
CCn1ncc(C(=O)c2ccc(C(F)(F)F)c(N3CCCC3=O)c2Cl)c1O [Compound 096] | 10 | 10 | 5 (Level 5: above 60% growth control rate) | 10 | 10 | 10 | 0 | 1 (Level 1: below 5% growth control rate) | 9 (Level 9: above 95% growth control rate) | 1 (Level 1: below 5% growth control rate) | 10 | 10 | 10 | 10
CCc1nn(C)c(OC(=O)c2cn(C)nc2C)c1C(=O)c1ccc(C(F)(F)F)c(-n2cc(C)cn2)c1Cl [Compound 141] | 9 (Level 9: above 95% growth control rate) | 7 (Level 7: above 80% growth control rate) | 3 (Level 3: above 20% growth control rate) | 9 (Level 9: above 95% growth control rate) | 7 (Level 7: above 80% growth control rate) | 10 | 0 | 1 (Level 1: below 5% growth control rate) | 10 | 1 (Level 1: below 5% growth control rate) | 10 | 10 | 10 | 10
CCOc1c(C(=O)Oc2c(C(=O)c3ccc(C(F)(F)F)c(N4CCCCCC4=O)c3Cl)cnn2C)cnn1C [Compound 051] | 10 | 2 (Level 2: 5%-20% growth control rate) | 5 (Level 5: above 60% growth control rate) | 6 (Level 6: above 70% growth control rate) | 0 | 10 | 2 (Level 2: 5%-20% growth control rate) | 0 | 1 (Level 1: below 5% growth control rate) | 0 | 10 | 10 | 10 | 10
CCOc1c(C(=O)Oc2c(C(=O)c3ccc(C(F)(F)F)c(-n4cc(C)cn4)c3Cl)c(C)nn2C)cnn1C [Compound 086] | 10 | 6 (Level 6: above 70% growth control rate) | 4 (Level 4: above 50% growth control rate) | 5 (Level 5: above 60% growth control rate) | 2 (Level 2: 5%-20% growth control rate) | 10 | 0 | 0 | 2 (Level 2: 5%-20% growth control rate) | 0 | 10 | 10 | 10 | 10
CCc1nn(C)c(OC(=O)c2cn(C)nc2C)c1C(=O)c1ccc(C(F)(F)F)c(-n2cccn2)c1Cl [Compound 131] | 10 | 10 | 3 (Level 3: above 20% growth control rate) | 10 | 10 | 10 | 4 (Level 4: above 50% growth control rate) | 0 | 10 | 0 | 10 | 10 | 10 | 10
